{"source": "BindingDB's records for doi:10.1016/s0960-894x(03)00254-3", "about": "(Merck Research Laboratories, 2003)", "key": {"[1]": {"experiment": "Ability to bind to the […] integrin expressed as inhibitory concentration against ADP-stimulated aggregation of human gel-filtered platelets"}, "[2]": {"experiment": "Ability to bind to the alpha IIb beta-3 integrin expressed as inhibitory concentration against ADP-stimulated aggregation of human gel-filtered platelets"}}, "note": "pIC50: −log10 of the molar value.", "data": [{"smiles": "O=C(O)C[C@H](NC(=O)Cn1c(C2CC2)c(Cl)nc(NCc2ccc3c(n2)NCCC3)c1=O)c1cccc(F)c1", "note": "[(S)-3-(2-{5-Chloro-6-cyclopropyl-2-oxo-3-[(5,6,7,8-tetrahydro-[1,8]naphthyridin-2-ylmethyl)-amino]-2H-pyrazin-1-yl}-acetylamino)-3-(3-fluoro-phenyl)-propionic acid]", "values": [{"measurement": "pIC50", "setting": "[1]", "value": "< 5.52"}]}, {"smiles": "O=C(O)C[C@H](NC(=O)CN1CC[C@H](CCc2ccc3c(n2)NCCC3)C1=O)c1cccnc1", "note": "[3-(2-{(S)-2-Oxo-3-[2-(5,6,7,8-tetrahydro-[1,8]naphthyridin-2-yl)-ethyl]-pyrrolidin-1-yl}-acetylamino)-3-(S)-pyridin-3-yl-propionic acid]", "values": [{"measurement": "pIC50", "setting": "[1]", "value": "< 5.52"}]}, {"smiles": "O=C(O)C[C@H](NC(=O)CN1CCCC(CCc2ccc3c(n2)NCCC3)C1=O)c1cccnc1", "note": "(stereo partly drawn) [3-(2-{2-Oxo-3-[2-(5,6,7,8-tetrahydro-[1,8]naphthyridin-2-yl)-ethyl]-piperidin-1-yl}-acetylamino)-3-(S)-pyridin-3-yl-propionic acid]", "values": [{"measurement": "pIC50", "setting": "[2]", "value": "< 5.52"}]}, {"smiles": "CCc1cnc(NCc2ccc3c(n2)NCCC3)c(=O)n1CC(=O)N[C@@H](CC(=O)O)c1cccc(F)c1", "note": "[(S)-3-(2-{6-Ethyl-2-oxo-3-[(5,6,7,8-tetrahydro-[1,8]naphthyridin-2-ylmethyl)-amino]-2H-pyrazin-1-yl}-acetylamino)-3-(3-fluoro-phenyl)-propionic acid]", "values": [{"measurement": "pIC50", "setting": "[1]", "value": "< 5.52"}]}, {"smiles": "O=C(O)C[C@H](NC(=O)Cn1c(C2CC2)ccc(NCc2ccc3c(n2)NCCC3)c1=O)c1cccnc1", "note": "[3-(2-{6-Cyclopropyl-2-oxo-3-[(5,6,7,8-tetrahydro-[1,8]naphthyridin-2-ylmethyl)-amino]-2H-pyridin-1-yl}-acetylamino)-3-(S)-pyridin-3-yl-propionic acid]", "values": [{"measurement": "pIC50", "setting": "[2]", "value": "< 5.52"}]}, {"smiles": "O=C(O)C[C@H](NC(=O)Cn1c(C2CC2)c(Cl)nc(NCc2ccc3c(n2)NCCC3)c1=O)c1cccnc1", "note": "[(S)-3-(2-{5-Chloro-6-cyclopropyl-2-oxo-3-[(5,6,7,8-tetrahydro-[1,8]naphthyridin-2-ylmethyl)-amino]-2H-pyrazin-1-yl}-acetylamino)-3-pyridin-3-yl-propionic acid]", "values": [{"measurement": "pIC50", "setting": "[1]", "value": "< 5.52"}]}, {"smiles": "CCCc1ccc(NCc2ccc3c(n2)NCCC3)c(=O)n1CC(=O)N[C@@H](CC(=O)O)c1cccnc1", "note": "[3-(2-{2-Oxo-6-propyl-3-[(5,6,7,8-tetrahydro-[1,8]naphthyridin-2-ylmethyl)-amino]-2H-pyridin-1-yl}-acetylamino)-3-(S)-pyridin-3-yl-propionic acid]", "values": [{"measurement": "pIC50", "setting": "[2]", "value": "< 5.52"}]}, {"smiles": "O=C(O)C[C@H](NC(=O)Cn1c(C2CC2)cnc(NCc2ccc3c(n2)NCCC3)c1=O)c1cccnc1", "note": "[(S)-3-(2-{6-Cyclopropyl-2-oxo-3-[(5,6,7,8-tetrahydro-[1,8]naphthyridin-2-ylmethyl)-amino]-2H-pyrazin-1-yl}-acetylamino)-3-pyridin-3-yl-propionic acid]", "values": [{"measurement": "pIC50", "setting": "[1]", "value": "< 5.52"}]}, {"smiles": "Cc1cnc(NCc2ccc3c(n2)NCCC3)c(=O)n1CC(=O)N[C@@H](CC(=O)O)c1cccc(F)c1", "note": "[(S)-3-(3-Fluoro-phenyl)-3-(2-{6-methyl-2-oxo-3-[(5,6,7,8-tetrahydro-[1,8]naphthyridin-2-ylmethyl)-amino]-2H-pyrazin-1-yl}-acetylamino)-propionic acid]", "values": [{"measurement": "pIC50", "setting": "[1]", "value": "< 5.52"}]}, {"smiles": "O=C(O)C[C@H](NC(=O)Cn1c(C2CC2)cnc(NCc2ccc3c(n2)NCCC3)c1=O)c1ccc2c(c1)OCO2", "note": "[(S)-3-Benzo[1,3]dioxol-5-yl-3-(2-{6-cyclopropyl-2-oxo-3-[(5,6,7,8-tetrahydro-[1,8]naphthyridin-2-ylmethyl)-amino]-2H-pyrazin-1-yl}-acetylamino)-propionic acid]", "values": [{"measurement": "pIC50", "setting": "[1]", "value": "< 5.52"}]}, {"smiles": "Cc1cnc(NCc2ccc3c(n2)NCCC3)c(=O)n1CC(=O)N[C@@H](CC(=O)O)c1cccnc1", "note": "[3-(2-{6-Methyl-2-oxo-3-[(5,6,7,8-tetrahydro-[1,8]naphthyridin-2-ylmethyl)-amino]-2H-pyrazin-1-yl}-acetylamino)-3-(S)-pyridin-3-yl-propionic acid]", "values": [{"measurement": "pIC50", "setting": "[2]", "value": "< 5.52"}]}, {"smiles": "O=C(O)C[C@H](NC(=O)Cn1c(C2CC2)ccc(NCc2ccc3c(n2)NCCC3)c1=O)c1ccc2c(c1)OCC2", "note": "[(S)-3-(2-{6-Cyclopropyl-2-oxo-3-[(5,6,7,8-tetrahydro-[1,8]naphthyridin-2-ylmethyl)-amino]-2H-pyridin-1-yl}-acetylamino)-3-(2,3-dihydro-benzofuran-6-yl)-propionic acid]", "values": [{"measurement": "pIC50", "setting": "[2]", "value": "< 5.52"}]}, {"smiles": "O=C(O)C[C@H](NC(=O)Cc1cccc(CCc2ccc3c(n2)NCCC3)c1)c1cccnc1", "note": "[3-(S)-Pyridin-3-yl-3-(2-{3-[2-(5,6,7,8-tetrahydro-[1,8]naphthyridin-2-yl)-ethyl]-phenyl}-acetylamino)-propionic acid]", "values": [{"measurement": "pIC50", "setting": "[1]", "value": "< 5.52"}]}, {"smiles": "Cc1ccc(NCc2ccc3c(n2)NCCC3)c(=O)n1CC(=O)N[C@@H](CC(=O)O)c1cccnc1", "note": "[3-(2-{6-Methyl-2-oxo-3-[(5,6,7,8-tetrahydro-[1,8]naphthyridin-2-ylmethyl)-amino]-2H-pyridin-1-yl}-acetylamino)-3-(S)-pyridin-3-yl-propionic acid]", "values": [{"measurement": "pIC50", "setting": "[2]", "value": "< 5.52"}]}, {"smiles": "O=C(O)C[C@H](NC(=O)CNC(=O)CCCc1ccc2c(n1)NCCC2)c1cccnc1", "note": "[(S)-3-Pyridin-3-yl-3-[2-(4-5,6,7,8-tetrahydro-[1,8]naphthyridin-2-yl-butyrylamino)-acetylamino]-propionic acid]", "values": [{"measurement": "pIC50", "setting": "[1]", "value": "< 5.52"}]}, {"smiles": "O=C(O)C[C@H](NC(=O)Cn1c(C2CC2)cnc(NCc2ccc3c(n2)NCCC3)c1=O)c1cccc(F)c1", "note": "[(S)-3-(2-{6-Cyclopropyl-2-oxo-3-[(5,6,7,8-tetrahydro-[1,8]naphthyridin-2-ylmethyl)-amino]-2H-pyrazin-1-yl}-acetylamino)-3-(3-fluoro-phenyl)-propionic acid]", "values": [{"measurement": "pIC50", "setting": "[1]", "value": "< 5.52"}]}, {"smiles": "C#C[C@H](CC(=O)O)NC(=O)Cn1c(C2CC2)ccc(NCc2ccc3c(n2)NCCC3)c1=O", "note": "[(S)-3-(2-{6-Cyclopropyl-2-oxo-3-[(5,6,7,8-tetrahydro-[1,8]naphthyridin-2-ylmethyl)-amino]-2H-pyridin-1-yl}-acetylamino)-pent-4-ynoic acid]", "values": [{"measurement": "pIC50", "setting": "[2]", "value": "< 5.52"}]}, {"smiles": "Cc1c(Cl)nc(NCc2ccc3c(n2)NCCC3)c(=O)n1CC(=O)N[C@@H](CC(=O)O)c1cccc(F)c1", "note": "[(S)-3-(2-{5-Chloro-6-methyl-2-oxo-3-[(5,6,7,8-tetrahydro-[1,8]naphthyridin-2-ylmethyl)-amino]-2H-pyrazin-1-yl}-acetylamino)-3-(3-fluoro-phenyl)-propionic acid]", "values": [{"measurement": "pIC50", "setting": "[1]", "value": "< 5.52"}]}, {"smiles": "O=C(O)C[C@H](NC(=O)Cn1c(C2CC2)ccc(NCc2ccc3c(n2)NCCC3)c1=O)c1cccc(F)c1", "note": "[(S)-3-(2-{6-Cyclopropyl-2-oxo-3-[(5,6,7,8-tetrahydro-[1,8]naphthyridin-2-ylmethyl)-amino]-2H-pyridin-1-yl}-acetylamino)-3-(3-fluoro-phenyl)-propionic acid]", "values": [{"measurement": "pIC50", "setting": "[2]", "value": "< 5.52"}]}, {"smiles": "O=C(O)C[C@H](NC(=O)Cn1c(C2CC2)c(Cl)nc(NCc2ccc3c(n2)NCCC3)c1=O)c1ccc2c(c1)OCC2", "note": "[(S)-3-(2-{5-Chloro-6-cyclopropyl-2-oxo-3-[(5,6,7,8-tetrahydro-[1,8]naphthyridin-2-ylmethyl)-amino]-2H-pyrazin-1-yl}-acetylamino)-3-(2,3-dihydro-benzofuran-6-yl)-propionic acid]", "values": [{"measurement": "pIC50", "setting": "[1]", "value": "< 5.52"}]}, {"smiles": "O=C(O)C[C@H](NC(=O)Cn1c(C2CC2)c(Cl)nc(NCc2ccc3c(n2)NCCC3)c1=O)c1cnc2ccccc2c1", "note": "[(S)-3-(2-{5-Chloro-6-cyclopropyl-2-oxo-3-[(5,6,7,8-tetrahydro-[1,8]naphthyridin-2-ylmethyl)-amino]-2H-pyrazin-1-yl}-acetylamino)-3-quinolin-3-yl-propionic acid]", "values": [{"measurement": "pIC50", "setting": "[1]", "value": "< 5.52"}]}, {"smiles": "O=C(O)C[C@H](NC(=O)Cn1c(-c2ccccc2)c(Cl)nc(NCc2ccc3c(n2)NCCC3)c1=O)c1cccc(F)c1", "note": "[(S)-3-(2-{5-Chloro-2-oxo-6-phenyl-3-[(5,6,7,8-tetrahydro-[1,8]naphthyridin-2-ylmethyl)-amino]-2H-pyrazin-1-yl}-acetylamino)-3-(3-fluoro-phenyl)-propionic acid]", "values": [{"measurement": "pIC50", "setting": "[1]", "value": "< 5.52"}]}, {"smiles": "O=C(O)C[C@H](NC(=O)Cn1cccc(NCc2ccc3c(n2)NCCC3)c1=O)c1cccnc1", "note": "[3-(2-{2-Oxo-3-[(5,6,7,8-tetrahydro-[1,8]naphthyridin-2-ylmethyl)-amino]-2H-pyridin-1-yl}-acetylamino)-3-(S)-pyridin-3-yl-propionic acid]", "values": [{"measurement": "pIC50", "setting": "[2]", "value": "< 5.52"}]}, {"smiles": "CCc1c(Cl)nc(NCc2ccc3c(n2)NCCC3)c(=O)n1CC(=O)N[C@@H](CC(=O)O)c1cccc(F)c1", "note": "[(S)-3-(2-{5-Chloro-6-ethyl-2-oxo-3-[(5,6,7,8-tetrahydro-[1,8]naphthyridin-2-ylmethyl)-amino]-2H-pyrazin-1-yl}-acetylamino)-3-(3-fluoro-phenyl)-propionic acid]", "values": [{"measurement": "pIC50", "setting": "[1]", "value": "< 5.52"}]}]}
